Literature values in patent US6632929B1, “Avidin derivatives and uses thereof” (Yeda Research and Development Co. LTD, priority 1998, dated 2003).

Experiments:
avidin [1] = biological target: T1, avidin (Gallus gallus, UniProt P02701); conditions: non-covalent, same biotin-binding site (Green, 1965); read-out: affinity; cited from earlier work
T1 construct: Egg-white avidin was provided by STC laboratories (Winnipeg, Canada); purchased STC laboratories (Winnipeg, Canada); host or cells: egg white
T1 sequence (P02701 25-152): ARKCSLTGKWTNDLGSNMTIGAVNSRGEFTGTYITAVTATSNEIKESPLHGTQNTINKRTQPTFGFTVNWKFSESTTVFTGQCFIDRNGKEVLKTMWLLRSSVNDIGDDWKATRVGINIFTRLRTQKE

streptavidin = streptavidin (Streptomyces avidinii, UniProt P22629); conditions: streptavidin-biotin complex; cited from earlier work
Chain of streptavidin (P22629 25-183): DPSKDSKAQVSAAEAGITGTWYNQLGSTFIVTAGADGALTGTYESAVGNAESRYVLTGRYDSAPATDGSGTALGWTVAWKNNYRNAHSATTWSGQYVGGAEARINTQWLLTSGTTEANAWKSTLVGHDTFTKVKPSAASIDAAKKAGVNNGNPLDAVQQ

avidin [2] = biological target: T1, avidin; conditions: avidin-biotin complex; cited from earlier work

Compound | Kd (avidin [1]) | affinity constant (streptavidin) | affinity constant (avidin [2])
O=C(O)c1ccccc1N=Nc1ccc(O)cc1 [4′-hydroxyazobenzene-2-carboxylic acid] | 1 to 10 µM |  | 
O=C(O)CCCC[C@@H]1SC[C@@H]2NC(=O)N[C@@H]21 [biotin] |  | 2.5e+13 M⁻¹ | 1.6e+15 M⁻¹
